This is an account of results in ChEMBL document CHEMBL1145618, “Discovery of trypanocidal thiosemicarbazone inhibitors of rhodesain and TbcatB” (Bioorg Med Chem Lett, 2008).

One series relates to Trypanosoma brucei. Kind of series: Antitrypanosomal activity against Trypanosoma brucei. The series is classed as functional, organism-based.
A short description of series [1]: Therapeutic index, ratio of EC50 for human Raji cells to EC50 for Trypanosoma brucei. The class given is cell-based. As to conditions: Raji cells (versus Trypanosoma brucei), read-out: Ratio EC50.
The target in a further series is Procathepsin L (Homo sapiens, UniProt P07711). In words: Inhibition of human cathepsin L.
Series [2] can be described thus: Inhibition of Trypanosoma brucei rhodesain.
Series [3] in a line: Inhibition of Trypanosoma brucei cathepsin B.
A further series concerns the target Cathepsin B (Homo sapiens, UniProt P07858). In words: Inhibition of human cathepsin B.

Chain of Procathepsin L (P07711 whole entry): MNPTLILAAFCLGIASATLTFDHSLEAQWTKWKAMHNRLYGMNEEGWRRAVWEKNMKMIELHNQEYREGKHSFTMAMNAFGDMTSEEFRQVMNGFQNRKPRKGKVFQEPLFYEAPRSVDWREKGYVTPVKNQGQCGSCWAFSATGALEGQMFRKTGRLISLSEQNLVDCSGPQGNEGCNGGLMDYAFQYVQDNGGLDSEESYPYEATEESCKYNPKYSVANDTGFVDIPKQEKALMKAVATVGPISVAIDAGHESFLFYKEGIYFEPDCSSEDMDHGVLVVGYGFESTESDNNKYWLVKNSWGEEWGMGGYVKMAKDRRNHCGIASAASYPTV

By EC50 is commonly meant the concentration that produces a half-maximal response. A high value points to weaker potency. The term IC50 denotes the concentration at which inhibition is half-maximal. Read a high IC50 as a need for much substance. Take `NC(=S)N/N=C(\CCc1ccccc1)c1cc(C(F)(F)F)cc(C(F)(F)F)c1`: the concentration for a half-maximal effect (EC50) with Trypanosoma brucei came out at 2000 nM. Further, in series [1], the selectivity ratio was over 10. Moreover, the 50% inhibitory concentration (IC50) at Procathepsin L is 17 nM; in series [2], 53 nM; in series [3], over 25000 nM; at Cathepsin B, 3000 nM.
Consider `Cc1ccc(/C(=N/NC(N)=S)c2ccccc2)cc1`, for which, in the series with Trypanosoma brucei, the EC50 was over 10000 nM. Further, the half-inhibitory concentration (IC50) is 1020 nM at Procathepsin L, 500 nM in series [2], over 25000 nM in series [3] and 13000 nM against Cathepsin B.
Consider `NC(=S)N/N=C(\CCc1ccccc1)c1cc(Cl)cc(Cl)c1`, for which the midpoint of the response in the series with Trypanosoma brucei, the EC50, lay at 1300 nM. The selectivity ratio in series [1] is over 19. The IC50 at Procathepsin L is 39 nM; in series [2], 57 nM; in series [3] it was over 25000 nM; at Cathepsin B, 4900 nM.
In the series on Trypanosoma brucei, `NC(=S)N/N=C(/CCc1ccccc1)c1ccccc1` had a half-maximal effective concentration (EC50) of over 10000 nM. The 50% inhibitory concentration (IC50) on Procathepsin L was 910 nM; in series [2], 1500 nM; in series [3] it was over 25000 nM; on Cathepsin B, over 25000 nM.
In the series on Trypanosoma brucei, `NC(=S)N/N=C(/C=C/c1ccccc1)c1cccc(C(F)(F)F)c1` returned an EC50 of 2500 nM. For the same molecule, the selectivity ratio in series [1] is over 10. For the same molecule, the IC50 against Procathepsin L was found to be 81 nM; in series [2], 29 nM; in series [3] it was 7000 nM; against Cathepsin B it was 1700 nM.
`NC(=S)N/N=C(/CCc1ccccc1)c1cccc(F)c1` registered an EC50 in the series with Trypanosoma brucei of 6000 nM. Further, the selectivity ratio in series [1] is over 4. In addition, the concentration for half-maximal inhibition (IC50) was 118 nM against Procathepsin L, 390 nM in series [2], over 25000 nM in series [3] and 22000 nM against Cathepsin B.
`Cc1ccc(/C(=N\NC(N)=S)c2cc(C(F)(F)F)cc(C(F)(F)F)c2)cc1` [THIOSEMICARBAZONE STANDARD] gave a concentration for a half-maximal effect (EC50) in the series with Trypanosoma brucei of 1300 nM. Moreover, the selectivity ratio in series [1] is over 19. The IC50 at Procathepsin L turned out to be 7.4 nM; in series [2], 44 nM; in series [3], 15000 nM; against Cathepsin B, 3300 nM.
Molecule `NC(=S)N/N=C(/c1cc(Cl)cc(Cl)c1)c1cccs1` gave a half-maximal effective concentration (EC50) in the series on Trypanosoma brucei of 7000 nM. Moreover, the selectivity ratio in series [1] was over 4. For the same molecule, the IC50 amounted to 3.6 nM against Procathepsin L, 11 nM in series [2], 450 nM in series [3] and 300 nM against Cathepsin B.
`NC(=S)N/N=C(/CCc1ccccc1)c1cccc(Cl)c1` yielded a concentration for a half-maximal effect (EC50) in the series with Trypanosoma brucei of 3700 nM. The selectivity ratio in series [1] was over 6.7. Also, the IC50 on Procathepsin L was 21 nM; in series [2], 42 nM; in series [3] it was over 25000 nM; on Cathepsin B, 6000 nM.
In the case of `NC(=S)N/N=C(/c1cc(C(F)(F)F)cc(C(F)(F)F)c1)c1cccs1`, the EC50 in the series with Trypanosoma brucei was determined as 7000 nM. For the same molecule, in series [1], the selectivity ratio was over 4. For the same molecule, the IC50 against Procathepsin L stood at 10.1 nM; in series [2], 7 nM; in series [3] it was 150 nM; against Cathepsin B, 300 nM.
Regarding `Cc1ccc(/C(=N/NC(N)=S)c2cccc(F)c2)cc1`, the EC50 in the series with Trypanosoma brucei was over 10000 nM. Besides, the IC50 is 44 nM at Procathepsin L, 89 nM in series [2], over 25000 nM in series [3] and 4500 nM against Cathepsin B.
In the case of `Cc1ccc(/C(=N\NC(N)=S)c2cc(Cl)cc(Cl)c2)cc1`, the half-maximal effective concentration (EC50) with Trypanosoma brucei is 1100 nM. Besides, the selectivity ratio in series [1] is over 9. The IC50 on Procathepsin L amounted to 11 nM; in series [2], 46 nM; in series [3] it was 6000 nM; against Cathepsin B, 1800 nM.
In the series with Trypanosoma brucei, `Cc1ccc(/C(=N/NC(N)=S)c2cccc(C(F)(F)F)c2)cc1` displayed a concentration for a half-maximal effect (EC50) of 1500 nM. The selectivity ratio in series [1] is over 17. Moreover, the concentration for half-maximal inhibition (IC50) stood at 9.4 nM on Procathepsin L, 8 nM in series [2], 210 nM in series [3] and 210 nM against Cathepsin B.
